{"source": "patent US20160287549A1", "about": "“NOVEL METHODS FOR TREATING NEURODEGENERATIVE DISEASES” (GENZYME CORPORATION, priority 2013, published 2016)", "key": {"L1210 murine leukemia": {"system": "L1210 murine leukemia", "details": "cited from earlier work"}, "[1]": {"system": "murine colon 38 tumor model", "details": "tissue-specific modulation of uridine nucleotide pools; cited from earlier work"}, "PfDHODH": {"target": "PfDHODH (Plasmodium falciparum, UniProt Q08210)", "sequence (Q08210 24-569)": "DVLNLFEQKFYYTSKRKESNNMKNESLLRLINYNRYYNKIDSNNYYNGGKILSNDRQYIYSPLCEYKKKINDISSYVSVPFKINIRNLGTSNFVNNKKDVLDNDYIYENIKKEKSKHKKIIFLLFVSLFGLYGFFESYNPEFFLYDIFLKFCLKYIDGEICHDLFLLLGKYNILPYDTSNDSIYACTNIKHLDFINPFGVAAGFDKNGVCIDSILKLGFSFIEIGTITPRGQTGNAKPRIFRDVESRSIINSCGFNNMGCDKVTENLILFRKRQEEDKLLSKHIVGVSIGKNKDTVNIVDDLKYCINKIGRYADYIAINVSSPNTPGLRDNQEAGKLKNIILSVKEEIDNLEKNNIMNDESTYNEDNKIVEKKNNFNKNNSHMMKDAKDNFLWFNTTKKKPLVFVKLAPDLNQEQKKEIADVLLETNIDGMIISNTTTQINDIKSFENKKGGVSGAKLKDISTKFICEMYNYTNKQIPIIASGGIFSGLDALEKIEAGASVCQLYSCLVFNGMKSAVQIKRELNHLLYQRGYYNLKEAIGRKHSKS", "details": "cited from earlier work"}, "hDHODH": {"target": "hDHODH (Homo sapiens, UniProt Q02127)", "sequence (Q02127 whole entry)": "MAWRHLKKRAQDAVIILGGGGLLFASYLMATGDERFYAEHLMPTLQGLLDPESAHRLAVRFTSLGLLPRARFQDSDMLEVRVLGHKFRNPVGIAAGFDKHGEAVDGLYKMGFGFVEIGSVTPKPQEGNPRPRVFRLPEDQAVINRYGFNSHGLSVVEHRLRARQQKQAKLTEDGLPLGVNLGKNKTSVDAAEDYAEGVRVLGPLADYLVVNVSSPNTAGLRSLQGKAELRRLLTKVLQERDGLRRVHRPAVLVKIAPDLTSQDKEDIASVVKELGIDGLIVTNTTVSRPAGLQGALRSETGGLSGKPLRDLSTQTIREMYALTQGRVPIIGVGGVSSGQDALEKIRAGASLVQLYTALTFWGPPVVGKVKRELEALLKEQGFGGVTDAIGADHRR", "details": "cited from earlier work"}, "SOD1-G93A mice [2]": {"system": "SOD1-G93A mice", "experiment": "Survival of symptomatic SOD1-G93A ALS mice", "format": "in vivo", "protocol": "SOD1-G93A transgenic mice (also known as G93A-SOD1 mice) are currently the best available model to test experimental therapeutics for the treatment of ALS. […] For example, the transgenic mice present with progressive muscular atrophy and weakness. Neuroinflammation, demyelination, and motor neuron death are observed in the mice, and ultimately, the mice become paralyzed and have a shortened lifespan.\nTo evaluate the effectiveness of DHODH inhibitors in treating ALS, 10 mg/kg of teriflunomide was administered by oral gavage to 82 day old SOD1-G93A male mice.\n(§1) In a second experiment, 20 mg/kg of teriflunomide was administered to 82 day old SOD1-G93A male and female mice (n=14/sex).\nMale SOD1-G93A mice (n=14) were administered W19 (subcutaneous injection at 10 mg/kg for 5 consecutive days and then every 10 mg/kg every 2 weeks thereafter) was administered starting at 82 days of age. After 7 days, peripheral blood was collected and lymphocyte depletion was evaluated using flow cytometry.\nTransgenic male (n=84) and female littermate (n=28) mice that express the mutant SOD1^G93A transgene at high-levels were divided to achieve cohort, sibling and sex matching amongst groups for these studies (Scott, S., et al. “Design, Power, and Interpretation of Studies in the Standard Murine Model of ALS.” Amyotrophic Lateral Sclerosis 9.1 (2008): 4-15. SCOPUS. Web. 18 Nov. 2013). Mutant SOD1 gene copy number and SOD1 protein expression were confirmed by PCR and western blot analysis. Animals were housed under light:dark (12:12 h) cycle and provided with food and water ad libitum. All procedures were performed using protocols approved by Genzyme Corporation's Institutional Animal Care and Use Committees.\nMice were scored into the following phases: presymptomatic (Pre-SYMP)=no visible motor abnormalities (i.e., normal hind limb splay); Symptomatic (SYMP)=abnormal hindlimb splay; End stage (ES)=onset of limb paralysis (typically hindlimb); and Moribund (MB)=unable to right themselves within 30 sec after being placed on their back."}, "SOD1-G93A mice [3]": {"system": "SOD1-G93A mice", "experiment": "Grip strength performance test in SOD1-G93A mice", "format": "in vivo", "details": "for grip strength loss (percent decline from baseline): 20 mg/kg oral gavage, baseline at 82 days, control 46.14-67.38% loss", "protocol": "as §1\nTesting of motor function using a grip strength device (Columbus Instruments, Columbus, Ohio) began at 60-70 days of age as previously described (Dodge, J. C. et al. (2008) 16:1056-1064). Each weekly session consisted of 4 tests per animal. Data shown represent percent decline in strength from baseline. Baseline measurements were made at 82 days of age. Percent reduction is grip strength is shown for vehicle treated mice scored as ES and age matched sibling mice treated with teriflunomide."}, "[4]": {"details": "cited from earlier work"}}, "data": [{"smiles": "Cc1c(-c2ccc(-c3ccccc3F)cc2)nc2ccc(F)cc2c1C(=O)O", "note": "[Brequinar]", "values": [{"measurement": "anticancer activity", "setting": "L1210 murine leukemia", "result": "exhibits anticancer activity"}, {"measurement": "effect on 5-fluorouracil antitumor activity", "setting": "[1]", "result": "potentiates 5-fluorouracil antitumor activity"}]}, {"smiles": "CCOC(=O)C(=CNc1cccc(C(=O)OCC)c1)C(=O)OCC", "note": "[Compound 58]", "values": [{"measurement": "PfDHODH(50 μM)", "setting": "PfDHODH", "result": "0 ± 4"}, {"measurement": "hDHODH(50 μM)", "setting": "hDHODH", "result": "5 ± 2"}]}, {"smiles": "CCOC(=O)C(=CNc1ccc(C(=O)OCC)cc1)C(=O)OCC", "note": "[Compound 59]", "values": [{"measurement": "PfDHODH(50 μM)", "setting": "PfDHODH", "result": "15 ± 4"}, {"measurement": "hDHODH(50 μM)", "setting": "hDHODH", "result": "4 ± 2"}]}, {"smiles": "CCOC(=O)C(C#N)=CNc1ccc(C(=O)OCC)cc1", "note": "[Compound 60]", "values": [{"measurement": "PfDHODH(50 μM)", "setting": "PfDHODH", "result": "2 ± 4"}, {"measurement": "hDHODH(50 μM)", "setting": "hDHODH", "result": "2 ± 2"}]}, {"smiles": "C/C(O)=C(\\C#N)C(=O)Nc1ccc(C(F)(F)F)cc1", "note": "[teriflunomide, (Z)-2-cyano-3-hydroxy-but-2-enoic acid-(4′-trifluoromethylphenyl)-amide]", "values": [{"measurement": "increase in survival as compared to control", "setting": "SOD1-G93A mice [2]; 10 mg/kg oral gavage, 82 day old male SOD1-G93A mice", "result": 7, "unit": "days"}, {"measurement": "median survival", "setting": "SOD1-G93A mice [2]; 10 mg/kg oral gavage, 82 day old male SOD1-G93A mice, control 127 days, p<0.005", "result": 134, "unit": "days"}, {"measurement": "median survival", "setting": "SOD1-G93A mice [2]; 20 mg/kg oral gavage, 82 day old male and female SOD1-G93A mice, control 130 days, p<0.04", "result": 146.5, "unit": "days"}, {"measurement": "increase in median survival as compared to control", "setting": "SOD1-G93A mice [2]; 20 mg/kg, 82 day old male and female SOD1-G93A mice", "result": 16.5, "unit": "days"}, {"measurement": "grip strength loss (percent decline from baseline)", "setting": "SOD1-G93A mice [3]; female SOD1-G93A mice", "result": "−24.06", "unit": "%"}, {"measurement": "grip strength loss (percent decline from baseline)", "setting": "SOD1-G93A mice [3]; male SOD1-G93A mice", "result": "−20.14", "unit": "%"}, {"measurement": "effect on muscle strength loss", "setting": "SOD1-G93A mice [3]; 20 mg/kg, male and female SOD1-G93A mice", "result": "significantly slowed muscle strength loss"}, {"measurement": "solubility in acetone", "setting": "[4]; acetone", "result": "sparingly soluble"}, {"measurement": "solubility in ethanol", "setting": "[4]; ethanol", "result": "slightly soluble"}, {"measurement": "solubility in isopropanol", "setting": "[4]; isopropanol", "result": "very slightly soluble"}, {"measurement": "solubility in polyethylene glycol", "setting": "[4]; polyethylene glycol", "result": "slightly soluble"}, {"measurement": "solubility in water", "setting": "[4]; water", "result": "practically insoluble"}]}]}
